Experiments:
Experiment in all cases: relative viability (nuclei count vs DMSO), 5 days (fraction); higher = more cells survive
Kobe2602 + Navitoclax = compound: C1=CC(=CC=C1NC(=S)NNC2=C(C=C(C=C2[N+](=O)[O-])C(F)(F)F)[N+](=O)[O-])F [Kobe2602] + CC1(C)CCC(c2ccc(Cl)cc2)=C(CN2CCN(c3ccc(C(=O)NS(=O)(=O)c4ccc(N[C@H](CCN5CCOCC5)CSc5ccccc5)c(S(=O)(=O)C(F)(F)F)c4)cc3)CC2)C1 [Navitoclax] (partner 0.5 µM)
Summary of the method: (§1)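 One day after seeding in 1536-well plates, lung cancer cell lines were dosed by pin tool. Dosing was either single-drug or a fixed anchor-drug dose plus five library-drug doses (not always all listed) in √10 steps. After 5 days, nuclei were stained in one fix-and-stain step and counted on 4× images, and relative viability is the nuclei count of treated wells over that of vehicle wells, given as the median of duplicate plates.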

Cabozantinib + OSI-027 = compound: COc1cc2nccc(Oc3ccc(NC(=O)C4(C(=O)Nc5ccc(F)cc5)CC4)cc3)c2cc1OC [Cabozantinib] + COc1cccc2cc(-c3nc([C@H]4CC[C@H](C(=O)O)CC4)n4ncnc(N)c34)[nH]c12 [OSI-027] (partner 0.5 µM)
Summary of the method: as §1

Zosuquidar + Trametinib = compound: O[C@@H](COc1cccc2ncccc12)CN1CCN([C@@H]2c3ccccc3[C@@H]3[C@H](c4ccccc42)C3(F)F)CC1 [Zosuquidar] + CC(=O)Nc1cccc(-n2c(=O)n(C3CC3)c(=O)c3c(Nc4ccc(I)cc4F)n(C)c(=O)c(C)c32)c1 [Trametinib] (partner 0.02 µM)
Summary of the method: as §1

Zosuquidar + Linsitinib = compound: O[C@@H](COc1cccc2ncccc12)CN1CCN([C@@H]2c3ccccc3[C@@H]3[C@H](c4ccccc42)C3(F)F)CC1 [Zosuquidar] + C[C@]1(O)C[C@@H](c2nc(-c3ccc4ccc(-c5ccccc5)nc4c3)c3c(N)nccn32)C1 [Linsitinib] (partner 1 µM)
Summary of the method: as §1

| Cell Line | relative viability (Kobe2602 + Navitoclax; first compound 0.2 µM) | relative viability (Kobe2602 + Navitoclax; first compound 0.6325 µM) | relative viability (Kobe2602 + Navitoclax; first compound 2 µM) | relative viability (Kobe2602 + Navitoclax; first compound 6.325 µM) | relative viability (Kobe2602 + Navitoclax; first compound 20 µM) | relative viability (Cabozantinib + OSI-027; first compound 0.02 µM) | relative viability (Cabozantinib + OSI-027; first compound 0.06325 µM) | relative viability (Cabozantinib + OSI-027; first compound 0.2 µM) | relative viability (Cabozantinib + OSI-027; first compound 0.6325 µM) | relative viability (Cabozantinib + OSI-027; first compound 2 µM) | relative viability (Zosuquidar + Trametinib; first compound 0.01 µM) | relative viability (Zosuquidar + Trametinib; first compound 0.03162 µM) | relative viability (Zosuquidar + Trametinib; first compound 0.1 µM) | relative viability (Zosuquidar + Trametinib; first compound 0.3162 µM) | relative viability (Zosuquidar + Trametinib; first compound 1 µM) | relative viability (Zosuquidar + Linsitinib; first compound 0.01 µM) | relative viability (Zosuquidar + Linsitinib; first compound 0.03162 µM) | relative viability (Zosuquidar + Linsitinib; first compound 0.1 µM) | relative viability (Zosuquidar + Linsitinib; first compound 0.3162 µM) | relative viability (Zosuquidar + Linsitinib; first compound 1 µM) |
| --- | --- | --- | --- | --- | --- | --- | --- | --- | --- | --- | --- | --- | --- | --- | --- | --- | --- | --- | --- | --- |
| EMC-BAC-2 | 1.16 | 1.17 | 1.11 | 1.13 | 1.16 | 0.337 | 0.379 | 0.398 | 0.385 | 0.361 | 0.92 | 0.988 | 0.842 | 1.02 | 0.883 | 0.803 | 0.843 | 0.782 | 0.858 | 0.797 |
| NCI-H1395 | 1.07 | 1.09 | 1.12 | 1.11 | 1.33 | 0.514 | 0.675 | 0.632 | 0.69 | 0.573 | 1.05 | 1.01 | – | 1.05 | 1.07 | 1.39 | 1.17 | 0.796 | 1.04 | 1.1 |
| NCI-H23 | 0.744 | 0.741 | 0.97 | 0.679 | 0.993 | – | 0.729 | 0.645 | 0.624 | 0.489 | 0.363 | – | 0.411 | 0.441 | 0.402 | 0.601 | 0.449 | 0.483 | 0.504 | 0.675 |
| NCI-H322M | 1.28 | 1.31 | 1.25 | 1.26 | 0.631 | 0.475 | 0.596 | 0.486 | 0.572 | 0.54 | 0.52 | 0.586 | 0.555 | 0.54 | 0.427 | 0.917 | 0.859 | 0.729 | 0.851 | 0.922 |
| NCI-H2126 | 0.883 | 0.888 | 0.799 | 0.776 | 0.788 | – | 0.798 | 0.706 | 0.71 | 0.884 | 0.505 | 0.577 | 0.536 | 0.573 | 0.599 | 0.71 | 0.707 | 0.543 | 0.755 | 0.719 |
| NCI-H647 | 1.16 | 1.1 | 1.06 | 1.04 | 1.13 | 0.589 | 0.633 | 0.641 | 0.636 | 0.548 | 0.444 | 0.457 | 0.419 | 0.549 | 0.484 | 1.16 | 1.19 | 1.3 | 1.28 | 1.24 |
| LU99A | 0.817 | 0.87 | 0.811 | 0.732 | 0.781 | 0.231 | 0.298 | 0.274 | 0.31 | 0.311 | 0.55 | 0.597 | 0.522 | 0.537 | 0.551 | 0.5 | 0.54 | 0.483 | 0.539 | 0.659 |
| NCI-H1666 | 1.02 | 0.982 | – | 0.77 | 0.924 | 0.694 | 0.836 | 0.816 | 0.846 | 0.913 | 0.833 | 1.03 | 0.859 | 0.954 | 0.811 | 0.759 | 0.832 | 0.768 | 0.817 | 0.78 |
| NCI-H596 | 0.908 | 1.05 | 0.949 | 0.962 | 0.992 | 0.922 | 0.738 | 0.65 | 0.667 | 0.54 | 0.762 | 1 | 0.857 | 0.776 | 0.79 | 1.03 | 1.09 | 1.03 | 1.05 | 1.03 |

Reference: the supplement of paper PMC10307832
